Experimental data reported in ChEMBL document CHEMBL5143574, “Unraveling the anti-virulence potential and antifungal efficacy of 5-aminotetrazoles using the zebrafish model of disseminated candidiasis” (Eur J Med Chem, 2022).
Activity calls are given as the source filed them. The rule behind the calls is not given here.

Experiments:
Candida albicans [1] = assay: Indifferent antifungal activity against Candida albicans SC5314 assessed as fractional inhibitory concentration index incubated for 24 hrs in RPMI medium in presence of nystatin by checkerboard assay; type: functional
Candida albicans [2] = assay: Anti-virulence activity against Candida albicans SC5314 assessed as inhibition of fungal filamentation by measuring reduction of hyphae formation in RPMI medium upto 10 uM incubated for 3 to 5 days by stereomicroscopic analysis; type: functional, organism-based; conditions: time 3-5 day
Candida albicans [3] = assay: Anti-virulence activity against Candida albicans SC5314 assessed as inhibition of fungal filamentation by measuring reduction of hyphae formation in SLAD medium at 2.5 uM incubated for 3 to 5 days by stereomicroscopic analysis; type: functional; conditions: time 3-5 day
Candida albicans [4] = assay: (§1) Anti-virulence activity 53-75 RFP expressing cells of Candida albicans M137 in hind brain of zebra fish embryo disseminated candidiasis model assessed as reduction in mortality by measuring embryo survival rate treated at 1 hr post-infection and measured at 48 hrs post infection (reference value: 40%); type: functional
Candida albicans [5] = assay: as §1, with “activity against” for “activity”, “on day 4” for “at 48 hrs”, “10%)” for “40%)”; type: functional; conditions: time 4 day
Candida albicans [6] = assay: Anti-virulence activity against Candida albicans SC5314 assessed as inhibition of fungal filamentation by measuring reduction in hyphae formation in YPS medium upto 10 uM incubated for 3 to 5 days by stereomicroscopic analysis; type: functional, organism-based; conditions: time 3-5 day
Candida albicans [7] = assay: Anti-virulence activity against 53-75 RFP expressing cells of Candida albicans M137 in hind brain of zebra fish embryo disseminated candidiasis model assessed as inhibition of fungal filamentation by measuring reduction of hyphae formation in the hind brain at 2.5 to 10 uM treated at 1 hr post-infection and measured on day 4 post infection by fluorescence microscopy; type: functional; parameters: scale not given: the % may be the effect or the level left; conditions: dose 2.5-10 µM, time 4 day
[8] = Reduction of nystatin resistance against Candida albicans SC5314 assessed as nystatin MIC at 5 to 10 uM measured after consecutive treatment with nystatin for 12 days; type: functional; conditions: SC5314, 288 h, dose 5-10 µM
Candida albicans [9] = assay: Anti-virulence activity against 120-140 RFP expressing cells of Candida albicans M137 expressing infected in hind brain of zebra fish embryo disseminated candidiasis model assessed as inhibition of fungal filamentation by measuring reduction of hyphae formation at 10 uM in presence of 1 ug/ml nystatin measured at 120 hpf; type: functional; parameters: scale not given: the % may be the effect or the level left
Candida albicans [10] = assay: Anti-virulence activity against 120-140 RFP expressing cells of Candida albicans M137 infected in hind brain of zebra fish embryo disseminated candidiasis model assessed as inhibition of fungal filamentation by measuring reduction of fungal hyphae formation at 10 uM in presence of 0.25 ug/ml nystatin measured at 120 hpf; type: functional
Candida albicans [11] = assay: Anti-virulence activity against 120-140 RFP expressing cells of Candida albicans M137 infected in hind brain of zebra fish embryo disseminated candidiasis model assessed as embryo survival rate upto 10 uM in presence of 0.13 to 1 ug/ml nystatin measured at 120 hpf; type: functional; conditions: up to 10 µM
Candida albicans [12] = assay: Antifungal activity against Candida albicans SC5314 assessed as inhibition of fungal growth incubated for 24 hrs by broth microdilution assay; type: functional
Candida albicans [13] = assay: Anti-virulence activity against Candida albicans SC5314 assessed as inhibition of fungal filamentation by measuring reduction of hyphae formation in SLAD medium at 1.3 uM incubated for 3 to 5 days by stereomicroscopic analysis; type: functional, organism-based; conditions: time 3-5 day
Candida albicans [14] = assay: as §1, with “activity against” for “activity”, “on day 4” for “at 48 hrs”, “relative to control” for “(reference value: 40%)”; type: functional; conditions: time 4 day
Candida albicans [15] = assay: Anti-virulence activity against Candida albicans SC5314 assessed as inhibition of fungal filamentation by measuring reduction in hyphae formation in YPS plus uridine medium upto 10 uM incubated for 3 to 5 days by stereomicroscopic analysis; type: functional, organism-based; conditions: time 3-5 day
Candida albicans [16] = assay: Anti-virulence activity against Candida albicans SC5314 assessed as inhibition of fungal filamentation by measuring reduction in hyphae formation in Spider medium upto 10 uM incubated for 3 to 5 days by stereomicroscopic analysis; type: functional, organism-based; conditions: time 3-5 day
Candida albicans [17] = assay: Anti-virulence activity against Candida albicans SC5314 assessed as inhibition of fungal filamentation by measuring reduction of hyphae formation in Spider medium at 1.3 uM incubated for 3 to 5 days by stereomicroscopic analysis; type: functional, organism-based; conditions: time 3-5 day
Candida albicans [18] = assay: Anti-virulence activity against Candida albicans SC5314 assessed as inhibition of fungal filamentation by measuring reduction of hyphae formation in Spider medium at 2.5 uM incubated for 3 to 5 days by stereomicroscopic analysis; type: functional; conditions: time 3-5 day
Candida albicans [19] = assay: Anti-virulence activity against Candida albicans SC5314 assessed as inhibition of fungal filamentation by measuring reduction of hyphae formation in YPS medium at 1.3 uM incubated for 3 to 5 days by stereomicroscopic analysis; type: functional, organism-based; conditions: time 3-5 day
Candida albicans [20] = assay: Anti-virulence activity against Candida albicans SC5314 assessed as inhibition of fungal filamentation by measuring reduction of hyphae formation in GlcNAc medium at 1.3 uM incubated for 3 to 5 days by stereomicroscopic analysis; type: functional, organism-based; conditions: time 3-5 day
Candida albicans [21] = assay: Anti-virulence activity against 120-140 RFP expressing cells of Candida albicans M137 infected in hind brain of zebra fish embryo disseminated candidiasis model assessed as embryo survival rate at 10 uM in presence of 0.25 ug/ml nystatin measured at 120 hpf; type: functional
[22] = Toxicity in zebrafish embryos assessed as toxic responses at 200 uM treated at 6 hpf and measured at 120 hpf by stereomicroscopic analysis; parameters: species or system Danio rerio; conditions: in vivo, 24 h
Candida albicans [23] = assay: Anti-virulence activity against 120-140 RFP expressing cells of Candida albicans M137 infected in hind brain of zebra fish embryo disseminated candidiasis model assessed as embryo mortality at 10 uM measured at 120 hpf; type: functional
[24] = Toxicity against zebrafish embryo infected with 53-75 RFP expressing cells of Candida albicans M137 assessed as mortality at 2.5 to 10 uM treated at 1 hr post-infection and measured on day 4 post-infection; parameters: species or system Danio rerio; conditions: 96 h, dose 2.5-10 µM, time 4 day
[25] = Toxicity in zebrafish embryos assessed as mortality treated at 6 hpf and measured at 120 hpf by stereomicroscopic analysis; parameters: species or system Danio rerio; conditions: in vivo
Candida albicans [26] = assay: Anti-virulence activity against Candida albicans SC5314 assessed as inhibition of fungal filamentation by measuring reduction of hyphae formation in YPS plus uridine medium at 1.3 uM incubated for 3 to 5 days by stereomicroscopic analysis; type: functional, organism-based; conditions: time 3-5 day
Candida albicans [27] = assay: Anti-virulence activity against Candida albicans SC5314 assessed as inhibition of fungal filamentation by measuring reduction in hyphae formation in GlcNAc medium upto 10 uM incubated for 3 to 5 days by stereomicroscopic analysis; type: functional, organism-based; conditions: time 3-5 day
Candida albicans [28] = assay: Anti-virulence activity against Candida albicans SC5314 assessed as inhibition of fungal filamentation by measuring reduction of hyphae formation in YPS medium at 2.5 uM incubated for 3 to 5 days by stereomicroscopic analysis; type: functional; conditions: time 3-5 day
Candida albicans [29] = assay: Anti-virulence activity against Candida albicans SC5314 assessed as inhibition of fungal filamentation by measuring reduction of hyphae formation in Lee medium at 1.3 uM incubated for 3 to 5 days by stereomicroscopic analysis; type: functional, organism-based; conditions: time 3-5 day
Candida albicans [30] = assay: Anti-virulence activity against Candida albicans SC5314 assessed as inhibition of fungal filamentation by measuring reduction in hyphae formation in Lee medium upto 10 uM incubated for 3 to 5 days by stereomicroscopic analysis; type: functional, organism-based; conditions: time 3-5 day
Candida albicans [31] = assay: Anti-virulence activity against Candida albicans SC5314 assessed as inhibition of fungal filamentation by measuring reduction of hyphae formation in GlcNAc medium at 2.5 uM incubated for 3 to 5 days by stereomicroscopic analysis; type: functional; conditions: time 3-5 day
Candida albicans [32] = assay: Anti-virulence activity against Candida albicans SC5314 assessed as inhibition of fungal filamentation by measuring reduction of hyphae formation in RPMI medium at 1.3 uM incubated for 3 to 5 days by stereomicroscopic analysis; type: functional, organism-based; conditions: time 3-5 day
Candida albicans [33] = assay: Anti-virulence activity against Candida albicans SC5314 assessed as inhibition of fungal filamentation by measuring reduction in hyphae formation in SLAD medium upto 10 uM incubated for 3 to 5 days by stereomicroscopic analysis; type: functional, organism-based; conditions: time 3-5 day

Nc1nnnn1CCC12CC3CC(CC(C3)C1)C2
fractional inhibitory concentration index (FICI) (Candida albicans [1]): 1 | Activity (Candida albicans [2]): Active | inhibition at 2.5 µM (Candida albicans [3]): 100% | Survival (Candida albicans [4]): 50% | Survival (Candida albicans [5]): 70% | Activity (Candida albicans [6]): Active | Activity (Candida albicans [7]): 100% | MIC [8]: 1 µg/mL | Activity (Candida albicans [9]): 100% | inhibition in vivo at 10 µM (Candida albicans [10]): ≤ 30% | Survival (Candida albicans [11]): <=80% | MIC (Candida albicans [12]): > 200 µM | Activity (Candida albicans [13]): Active | fold change (FC) (Candida albicans [14]): 7 | Activity (Candida albicans [15]): Active | Activity (Candida albicans [16]): Active | Activity (Candida albicans [17]): Active | inhibition at 2.5 µM (Candida albicans [18]): 100% | Activity (Candida albicans [19]): Active | Activity (Candida albicans [20]): Active | survival at 10 µM (Candida albicans [21]): ≤ 30% | Activity [22]: Non-Toxic | mortality at 10 µM (Candida albicans [23]): 80% | Activity [24]: Non-Toxic | LC50 [25]: > 200 µM | Activity (Candida albicans [26]): Active | Activity (Candida albicans [27]): Active | inhibition at 2.5 µM (Candida albicans [28]): 100% | Activity (Candida albicans [29]): Active | Activity (Candida albicans [30]): Active | inhibition at 2.5 µM (Candida albicans [31]): 100% | Activity (Candida albicans [32]): Active | Activity (Candida albicans [33]): Active
